Data on one sequence can be found in patent publication US20060111289A1, “Compositions and methods of using Alpha-fetoprotein growth inhibitory peptides” (Serometrix, LLC,, priority 2004, published 2006).

The test system of assay [1] is MCF-7 and 6WI-1 tumor cells. Description: Tumor cell adhesion to ECM proteins in microtiter plates. The class given is cell-based, human, murine. How it is done:
FIG. 8 presents exemplary data showing the inhibition of P149 in the cellular adhesion of cancer cells to extracellular matrix (ECM) proteins for both human MCF-7 breast cancer cells and for murine 6WI-1 ascites-adapted mammary tumor cells. The cellular adhesion assay was performed in 96-well microtiter plates (Nunc Company, Denmark, catalog #263339) and the wells were pre-coated with 100 microliters of each of the above-mentioned ECM proteins for 24 hours as previously determined. After adding tumor cells, the plates were then incubated at 37° C. for various times; while 6WI-1 cells usually required only 2-4 hours incubation for adhesion; MCF-7 cells required 24 hours for attachment following trypsinization. For both cell lines, the cell culture media contained 5% calf serum to ensure cell attachment. The plates were washed twice with Hank's Saline, fixed in 0.5 mL of 37% formaldehyde, stained with crystal violet and read at […] on a microplate reader. Inset: Using a CyQUANT® stain kit, (Hoechst Corp., Germany) the plates were first exposed to a freeze/thaw cycle at −70° C. for 24 hours and 37° C. for 10 minutes. CyQUANT® buffer solution (150 microliters) was added to each well, and the cell adhesion was measured by fluorescence spectroscopy and quantitated using an ImageQuant® plate scanner (Fluorimager 595, Molecular Dynamics, Sunnyvale, Calif.).
This attachment of GIP was a slightly weaker adhesion matrix than was gelatin, chondroitin sulfate, and poly-lysine which approximated 30-35%. Using P149, the optimal amount of peptide required to inhibit tumor cell adhesion was determined by absorbing soluble peptide (1.0 pg to 100 μg) to the walls of microtiter plates. A constant number of MCF-7 tumor cells (i.e., for example, 1×10^5) were then added to the microtiter well and adhesion quantitated by fluorescence. […] The quantitation of MCF-7 and 6WI-1 cell adhesion in the presence of peptide versus peptide-free media was then determined on ECM-coated microtiter plates using 3 μg GIP/well as a competitive inhibitor. The P149 peptide was added to the wells immediately after the cells were dispensed and then the mixture was incubated as described. The AFP peptide was capable of cell adhesion inhibition in most of the ECM proteins in both tumor cell lines. Inhibition of mouse and human tumor cell adhesion was somewhat equivalent using collagen IV, fibrinogen, fibronectin, and thrombospondin. […] Thus, the GIP was found capable of eliciting different attachment inhibitions dependent on the type of ECM protein coating the wall of the microtiter plate and also the tumor cell type involved.

Assay [2] has as its system 6WI-1 mammary tumor cells. Nature of the assay: 6WI-1 mammary tumor in 15-day old mouse pups (6 day assay). Set-up: % Inhibition Of Activity: 6WI-1 Pup Ascites: concentration or dose not given beside the values. The class given is in vivo. The note with it: mouse pups. The text has this: As an alternative model of the 6WI-I mammary tumor in adult mice, an inocula of 1×10^6 tumor cells injected into 15-day old mouse pups provided a 6 day rather than a 12 day assay and replicated the same tumor growth suppression by GIP.

The test system of assay [3] is MCF-7 and GI-101 cells. Description: ATP luminescence cytostatic assay (6 days). Conditions: peptide 10^−12 to 10^−8 M. The format is cell-based, human. The text has this:
FIG. 2 presents exemplary data for both in vivo and in vitro growth suppressive activities of the GIP-derived P149 and control peptides are depicted in GI-101 human ductal breast carcinoma and in MCF-7 human glandular breast carcinoma. • Panels A and A2: GI-101 and MCF-7 xenograft in nude mice administered P149 time-release pellets for 60 days and 30 days, respectively (N=5 mice/group). • Panels B and B2: GI-101 and MCF-7 in cell cultures treated with P149 and P187 at concentrations from 10-8 to 10-12 M for 6 days and assayed by ATP luminescence reagent employing a luciferin-luciferase system. The ATP assay, used to distinguish between cytostasis versus cytotoxicity, was used to confirm that P149 was cytostatic in its cell inhibitory activity at 6 days (see text for details).
In order to confirm whether P149 was indeed cytostatic, and not cytotoxic, an ATP-based cytostatic assay was performed which measures the decrease in cytosolic ATP during drug (i.e., for example, GIP peptide) treatment. This ATP luminescence assay has long been employed to distinguish between cytostatic versus cytotoxic chemotherapeutic sensitivity of drugs. […] After incubation of the cell cultures for 6 days, cytosolic ATP was extracted, stabilized, and quantitated from a standard curve produced from Berthold LB-96P luminometer readings using a luciferin-luciferase counting reagent.

Assay [4] is described as follows: Estrogen fetotoxicity. Set-up: concentration or dose not given beside the values. Conditions: in vivo.

For the sequence “KDFIHKQGVALQTMKQELINLVKELVKPQIEAVADFSGLL (listed as Homo sapiens) [P192, reference compound]”, the “% Inhibition Of Activity: Cell Adhesion” value in assay [1] stood at 0%. In addition, the “% Inhibition Of Activity: 6WI-1 Pup Ascites” value in assay [2] was 0%. In assay [3], the “Growth inhibition / decrease in cytosolic ATP in the ATP luminescence assay” value was “not significantly different from the non-treated control”. For the same sequence, the “% Inhibition Of Activity: Estrogen Fetotoxicty” value in assay [4] was 0%.
